Laboratory results from patent US9682089B2, “Methods and compositions for stimulating reepithelialisation during wound healing” (Institut National de la Sante et de la Recherche Medicale …, priority 2010, dated 2017).

Legend:
ENaC = experiment: real-time PCR analysis of ENaC subunit gene expression in skin of K5-MR neonates; format: in vivo, mouse; conditions: K5-MR pups; pregnant mice were given canrenoate
From the text: We took advantage of the K5-MR mouse model to question whether expression of ENaC and its main regulators may be altered by MR overexpression. Skin samples from control and K5-MR neonates were processed for real-time PCR analysis of gene expression.

[1] = tested on: keratinocyte outgrowth of skin explants; experiment: ex vivo wound healing assay: organotypic culture of newborn mouse skin explants, keratinocyte outgrowth; format: cell-based; conditions: 0.1 mM in culture medium, 7 days culture

Compound: C[C@]12CCC(=O)C=C1C=C[C@@H]1[C@@H]2CC[C@@]2(C)[C@H]1CC[C@@]2(O)CCC(=O)O [potassium canrenoate]
- enhanced skin mRNA expression of all 3 subunits of ENaC (abnormal pattern of expression) (ENaC): blunted
- impaired keratinocyte outgrowth of the explants ([1]; skin explants from K5-MR pups (MR overexpression in basal keratinocytes)): partially but significantly improved
- keratinocyte outgrowth of the explants ([1]; skin explants from control pups): no effect
